Reference: patent US9290457B2, “Substituted dihydropyrimidinones and their use as inhibitors of neutrophil elastase activity” (Boehringer Ingelheim International GmbH, priority 2014, dated 2016)

Assays:
Assay type in all cases: in vitro ADME
Caco-2 cells = assay: Drug transport across human Caco-2 cells; conditions: pH 7.2, 37° C.; for PEAB: apical-to-basal; for PEBA: basal-to-apical
Excerpt: (§1) Assay for Determination of Drug Transport Across Human Caco-2 Cells
(§2) The assay provides information on the potential of a compound to pass the cell membrane, on the extent of oral absorption as well as on whether the compound is actively transported by uptake and/or efflux transporters. For the measurement of permeability across polarized, confluent human cancer colon carcinoma cells 2 (Caco-2) cell monolayers grown on permeable filter supports are used as the in vitro absorption model.
(§3) Apparent permeability coefficients (PE) of the compounds across the Caco-2 monolayers are measured (pH 7.2, 37° C.) in apical-to-basal (AB) (absorptive) and basal-to-apical (BA) (secretory) transport direction. AB permeability (PEAB) represents drug absorption from the intestine into the blood and BA permeability (PEBA) drug secretion from the blood back into the intestine via both passive permeability as well as active transport mechanisms mediated by efflux and uptake transporters that are expressed on the Caco-2 cells. The compounds are assigned to permeability/absorption classes by comparison of the AB permeabilities with the AB permeabilities of reference compounds with known in vitro permeability and oral absorption in the human. Identical or similar permeabilities in both transport directions indicate passive permeation, vectorial permeability points to additional active transport mechanisms. […] Active transport is concentration-dependently saturable.
(§4) Caco-2 cells (1-2*10^5 cells/cm^2 area) are seeded on filter inserts (Costar transwell polycarbonate or PET filters, 0.4 μm pore size) and cultured (DMEM) for 10 to 25 days. Compounds are dissolved in appropriate solvent (like DMSO, 1-20 mM stock solutions). Stock solutions are diluted with HTP-4 buffer (128.13 mM NaCl, 5.36 mM KCl, 1 mM MgSO4, 1.8 mM CaCl2, 4.17 mM NaHCO3, 1.19 mM Na2HPO4x7H2O, 0.41 mM NaH2PO4xH2O, 15 mM HEPES, 20 mM glucose, pH 7.2) to prepare the transport solutions (typically 10 μM compound, final DMSO<=0.5%). The transport solution (TL) is applied to the apical or basolateral donor side for measuring A-B or B-A permeability (3 filter replicates), respectively. The receiver side contains HTP-4 buffer supplemented with 2% BSA. Samples are collected at the start and end of experiment from the donor and at various time intervals for up to 2 hours also from the receiver side for concentration measurement by LC-MS/MS or scintillation counting. Sampled receiver volumes are replaced with fresh receiver solution.
(§5) The apparent permeability coefficients (PEAB and PEBA) of selected compounds in the Caco-2 drug transport assay described above are listed in Table 5.

human hepatocytes = assay: Metabolic stability with human hepatocytes; conditions: 1 μM compound, well stirred model
Protocol: Assay for the Determination of Metabolic Stability with Human Hepatocytes
The metabolic degradation of the test compound is assayed in a human hepatocyte suspension. Human hepatocytes (typically cryopreserved) are incubated in an appropriate buffer system (e.g. Dulbecco's modified eagle medium plus 3.5 μg glucagon/500 mL, 2.5 mg insulin/500 mL and 3.75 mg/500 mL hydrocortison) containing 5% species serum. Following a (typically) 30 min preincubation in an incubator (37° C., 10% CO2), 5 μl of test compound solution (80 μM; from 2 mM stock solution in DMSO diluted 1:25 with medium) are added into 395 μl hepatocyte suspension (cell density in the range 0.25-5*10^6 cells/mL, typically 1*10^6 cells/mL; final concentration of test compound 1 μM, final DMSO concentration 0.05%). The cells are incubated for six hours (incubator, orbital shaker) and samples (25 μl) are taken at 0, 0.5, 1, 2, 4 and 6 hours. Samples are transferred into acetonitrile and pelleted by centrifugation (5 min) The supernatant is transferred to a new 96-deepwell plate, evaporated under nitrogen and resuspended. The decline of parent compound is analyzed by LC-MS/MS.
The intrinsic clearance CL_[…] is calculated as follows: CL_[…]=Dose/AUC=(Co/CD)/(AUD+clast/k)*1,000/60 (Co: initial concentration in the incubation [μM], CD: cell density of vital cells [10^6 cells/mL], AUD: area under the data [μM*h], clast: concentration of last data point [μM], k: slope of the regression line for parent decline [h^−1])
The calculated in vitro hepatic intrinsic clearance Q h can be scaled up to the intrinsic in vivo hepatic clearance and used to predict hepatic in vivo blood clearance (CL) by the use of a liver model (well stirred model): CL_[…]_INVIVO[ml/min/kg]=(CL_[…][μL/min/10^6cells]*hepatocellularity[10^6cells/g liver]*liver factor[g/kg bodyweight])/1,000 CL[ml/min/kg]=CL_[…]_INVIVO[ml/min/kg]*hepatic blood flow [ml/min/kg]/(CL_[…]_INVIVO[ml/min/kg]+hepatic blood flow[ml/min/kg]) Qh[%]=CL[ml/min/kg]/hepatic blood flow[ml/min/kg]) (Hepatocellularity, human: 120*10^6 cells/g liver; liver factor, human: 25.7 g/kg bodyweight; blood flow, human: 21 ml/(min*kg)) Based on this assay.
The calculated in vitro hepatic intrinsic clearance values of selected compounds in the metabolic stability assay with human hepatocytes described above are listed in Table 4.

[1] = Drug transport across human Caco-2 cells; conditions: human, Caco-2, pH 7.2, 37° C.; for Papp A→B at 10 μM: apical-to-basal, read-out: PEAB; for Papp B→A at 10 μM: basal-to-apical, read-out: PEBA
Excerpt: as §1, §2, §3, §4, §5

cytochrome P450 2C8 = cytochrome P450 2C8 (Homo sapiens (Human), UniProt P10632); assay: Cytochrome P450 2C8 inhibition; conditions: human liver microsomes, Amodiaquine deethylation; read-out: IC50 CYP2C8 inhibition
Protocol: Assay for Determination of Cytochrome P450 2C8 Inhibition
All assays are carried out on a robotic system in 96 well plates. The final incubation volume contains TRIS buffer (0.1 M), MgCl2 (5 mM), human liver microsomes (0.05 mg/ml), Amodiaquine (1 μM) and the test compound at five different concentrations or no compound (high control) in duplicate (e.g. highest concentration 10-50 μM with subsequent serial 1:4 dilutions). Following a short preincubation period, reactions are started with the cofactor (NADPH, 1 mM) and stopped by cooling the incubation down to 8° C. and subsequently by addition of one volume of acetonitrile. An internal standard solution—usually the stable isotope of the formed metabolite—is added after quenching of incubations. Peak area analyte (=metabolite formed) and internal standard is determined by LC-MS/MS. The resulting peak area ratio analyte to internal standard in these incubations is compared to a control activity containing no test compound.
If the inhibition of the reaction is already >50% at the lowest concentration of the test compound, the IC50 is assigned “<lowest concentration tested” (usually <0.4 μM). If the inhibition of the reaction is still <50% at the highest concentration of the test compound, the IC50 is assigned “>highest concentration tested” (usually >50 μM).

Sequence of cytochrome P450 2C8 (P10632 whole entry): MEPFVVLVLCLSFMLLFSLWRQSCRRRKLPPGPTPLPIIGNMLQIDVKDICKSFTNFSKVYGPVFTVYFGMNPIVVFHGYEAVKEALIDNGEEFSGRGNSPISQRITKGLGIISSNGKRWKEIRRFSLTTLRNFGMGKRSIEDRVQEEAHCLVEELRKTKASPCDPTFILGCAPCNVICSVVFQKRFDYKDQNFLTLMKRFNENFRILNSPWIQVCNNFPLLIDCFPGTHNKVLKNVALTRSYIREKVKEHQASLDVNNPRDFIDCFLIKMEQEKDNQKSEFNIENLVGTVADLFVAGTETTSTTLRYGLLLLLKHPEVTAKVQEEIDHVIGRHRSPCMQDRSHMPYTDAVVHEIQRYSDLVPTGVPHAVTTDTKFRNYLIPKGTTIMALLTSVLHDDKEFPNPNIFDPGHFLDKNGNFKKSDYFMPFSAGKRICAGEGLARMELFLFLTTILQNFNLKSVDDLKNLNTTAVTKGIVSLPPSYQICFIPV

SMILES | PEAB (Caco-2 cells) | PEBA (Caco-2 cells) | Qh (human hepatocytes) | Papp A→B at 10 μM [1] | Papp B→A at 10 μM [1] | IC50 (cytochrome P450 2C8)
CC(=O)C1=C(C)N(c2cccc(C(F)(F)F)c2)C(=O)N(C)C1c1ccc(C#N)cc1C(=O)NC1CC1 (centres unmarked) [Example 1.8] | 44 ×10⁻⁶ cm/s | 74 ×10⁻⁶ cm/s | 22% | – | – | –
CC(=O)C1=C(C)N(c2cccc(C(F)(F)F)c2)C(=O)N(C)C1c1ccc(C#N)cc1C(=O)NCCF (centres unmarked) [Example 1.10] | 39 ×10⁻⁶ cm/s | 78 ×10⁻⁶ cm/s | 27% | – | – | –
CC(=O)C1=C(C)N(c2cccc(C(F)(F)F)c2)C(=O)N(C)C1c1ccc(C#N)cc1C(=O)NCC(C)(C)O (centres unmarked) [Example 1.22] | – | – | 15% | 7.8 ×10⁻⁶ cm/s | 81 ×10⁻⁶ cm/s | –
CC(=O)C1=C(C)N(c2cccc(C(F)(F)F)c2)C(=O)N(C)C1c1ccc(C#N)cc1C(=O)N1CCn2ncnc2C1 (centres unmarked) [Example 1.73] | – | – | 19% | 5.1 ×10⁻⁶ cm/s | 92 ×10⁻⁶ cm/s | –

Continued, values first:

PEAB (Caco-2 cells) | PEBA (Caco-2 cells) | Qh (human hepatocytes) | Papp A→B at 10 μM [1] | Papp B→A at 10 μM [1] | IC50 (cytochrome P450 2C8) | SMILES
10 ×10⁻⁶ cm/s | 81 ×10⁻⁶ cm/s | 25% | – | – | – | CC(=O)C1=C(C)N(c2cccc(C(F)(F)F)c2)C(=O)N(C)C1c1ccc(C#N)cc1C(=O)NCC#N (centres unmarked) [Example 1.6]
33 ×10⁻⁶ cm/s | 80 ×10⁻⁶ cm/s | 16% | – | – | > 50 µM | CNC(=O)c1cc(C#N)ccc1[C@@H]1C(C(C)=O)=C(C)N(c2cccc(C(F)(F)F)c2)C(=O)N1C [Example 13.1]
– | – | 5% | 12 ×10⁻⁶ cm/s | 120 ×10⁻⁶ cm/s | > 50 µM | CC(=O)C1=C(C)N(c2cccc(C(F)(F)F)c2)C(=O)N(C)[C@@H]1c1ccc(C#N)cc1-c1ccc(=O)n(C)c1 [Example 16, 4-[(R)-5-Acetyl-3,6-dimethyl-2-oxo-1-(3-trifluoromethyl-phenyl)-1,2,3,4-tetrahydro-pyrimidin-4-yl]-3-(1-methyl-6-oxo-1,6-dihydro-pyridin-3-yl)-benzonitrile]
– | – | 6% | 11 ×10⁻⁶ cm/s | 114 ×10⁻⁶ cm/s | – | CC(=O)C1=C(C)N(c2cccc(C(F)(F)F)c2)C(=O)N(C)[C@@H]1c1ccc(C#N)cc1-c1ccn(C)c(=O)c1 [Example 17, 4-[(R)-5-Acetyl-3,6-dimethyl-2-oxo-1-(3-trifluoromethyl-phenyl)-1,2,3,4-tetrahydro-pyrimidin-4-yl]-3-(1-methyl-2-oxo-1,2-dihydro-pyridin-4-yl)-benzonitrile]
